Where “and” joins values, the source holds several entries; their conditions need not be identical. Equal entries are not always repeated.
What was measured:
tomato [1] = assay: Experimental Example 2: Efficacy test on tomato using oil based formulation (reddening grade); assay type: in vivo; settings: 1.0 mM oil-based formulation, individual tomatoes n=4
Text: (§1) At this time, the tops of tomatoes most early turned red, while the bottoms thereof most lately turned red. For this reason, in order to accurately evaluate the difference in reddening, the coloring evaluated was based on the area of red color, rather than the color of tomatoes. […] Accordingly, the grade level is proportional to the rate at which the tomatoes ripened.
As illustrated in Example 1, in situ, in accordance with the methods of Preparation Examples 15, 16, 17, 18 and 22, five agents (1.0 mmol) such as 1-(2-phenylethyl)cyclopropene, 1-(3-phenylpropyl)cyclopropene, 1-(4-phenylbutyl)cyclopropene, 1-(5-phenylpentyl)cyclopropene and 1-hexylcyclopropene were prepared, 5.0 ml of xylene and 5.0 ml of water were added to the reaction solution, vigorously stirred for 5 minutes and stood. When the mixture was separated into an organic layer (upper layer) and an aqueous layer (lower layer), only the organic layer was collected and the aqueous layer was discarded. […] of hexane was added to the organic layer and homogeneously mixed to prepare a 1.0 mM oil-based formulation.
The tomatoes were screened in the same manner as in Experimental Example 1 and divided into 7 groups (n=4) including a non-treated group, a control group (solvent-treated group) and 5 agent groups. Tomatoes were treated with the previously prepared agent using a household sprayer such that the surface thereof was saturated. The tomatoes were stood at room temperature (25-30° C.) for 3 days and a reddening level thereof was evaluated based on grades of 0 to 5.

tomato [2] = assay: Experimental Example 1: Efficacy test on tomato using emulsion (reddening grade); assay type: in vivo; settings: individual tomatoes n=4
Method: In situ, a 1.0 mM 1-octylcyclopropene formulation was prepared using (trans)-1-octyl-1-(methanesulfonyloxy)-2-(trimethylsilyl)cyclopropane of Preparation Example 10 in the same manner as in Example 7. This solution was diluted to 1 to 100 times prior to use, as necessary. Experimental Example 1: Efficacy test on tomato using emulsion 1.0 mM formulations of five agents such as 1-(2-phenylethyl)cyclopropene, 1-(3-phenylpropyl)cyclopropene, 1-(4-phenylbutyl)cyclopropene, 1-(5-phenylpentyl)cyclopropene and 1-hexylcyclopropene were prepared in the same manner as in Example 1, and 1.0 mM and 100 μM solutions were prepared therefrom. Then, the effects of the solutions were compared with non-treated groups and control groups in which a surfactant or a stabilizing agent (sodium dodecylbenzenesulfonate or tristyrenylphenykethoxy)12ethanol) is dissolved.
Tomatoes whose top end began to turn pink were screened, harvested and divided into 12 groups (n=4) in total, i.e., non-treated groups, control groups (surfactant) and agent groups with different concentrations such as 100 μM and 1.0 mM. Tomatoes were treated with the prepared agent formulation using a household sprayer such that the surface thereof was saturated. The tomatoes were stood at room temperature (25-30° C.) for 3 days and a reddening level thereof was evaluated based on grades of 0 to 5.
as §1

[3] = Relative chemical stability of cyclopropenes measured by 1H-NMR; assay type: physicochemical; settings: for Stability (relative chemical stability, based on cyclopropenes having a chain length of 1): 1H-NMR, CDCl3, stored at −20° C. or room temperature, relative to chain length 1
Summary of the method: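 Compounds in CDCl3 NMR tubes stored at −20° C. or room temperature and followed by 1H-NMR. Integrals of characteristic 1-alkylcyclopropene peaks (4–6.5 ppm, 1H; 0.8–0.9 ppm, 2H) compared against 1,1,3,3-tetramethylurea internal standard (2.80 ppm); stability expressed relative to chain-length-1 analogue.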

[4] = Day 0, room temperature (25-30° C.)
[5] = Day 1, room temperature (25-30° C.)
[6] = Day 2, room temperature (25-30° C.)
[7] = Day 3, room temperature (25-30° C.)
[8] = 100 μM, Day 0, room temperature (25-30° C.)
[9] = 100 μM, Day 1, room temperature (25-30° C.)
[10] = 100 μM, Day 2, room temperature (25-30° C.)
[11] = 100 μM, Day 3, room temperature (25-30° C.)
[12] = 1.0 mM, Day 0, room temperature (25-30° C.)
[13] = 1.0 mM, Day 1, room temperature (25-30° C.)
[14] = 1.0 mM, Day 2, room temperature (25-30° C.)
[15] = 1.0 mM, Day 3, room temperature (25-30° C.)

chemical stability (in words) [3] | Stability (relative chemical stability, based on cyclopropenes having a chain length of 1) [3] | Compound | Tomato results: reddening level (grade 0 to 5) (tomato [1]; [4]) | Tomato results: reddening level (grade 0 to 5) (tomato [1]; [5]) | Tomato results: reddening level (grade 0 to 5) (tomato [1]; [6]) | Tomato results: reddening level (grade 0 to 5) (tomato [1]; [7]) | reddening level (grade 0 to 5) (tomato [2]; [8]) | reddening level (grade 0 to 5) (tomato [2]; [9]) | reddening level (grade 0 to 5) (tomato [2]; [10]) | reddening level (grade 0 to 5) (tomato [2]; [11]) | reddening level (grade 0 to 5) (tomato [2]; [12]) | reddening level (grade 0 to 5) (tomato [2]; [13]) | reddening level (grade 0 to 5) (tomato [2]; [14]) | reddening level (grade 0 to 5) (tomato [2]; [15])
much more stable | >>10 | C1=C(CCCc2ccccc2)C1 [(3-Phenylpropyl), 1-(3-phenylpropyl)cyclopropene] | 0 (an area in which the surface of tomato was colored in pink was 10% or less) (2×) and 1 (an area in which the surface of tomato was completely colored in red was 10 to 40%) and 2 (an area in which the surface of tomato was completely colored in red was 40 to 70%) | 0 (an area in which the surface of tomato was colored in pink was 10% or less) (2×) and 1 (an area in which the surface of tomato was completely colored in red was 10 to 40%) and 2 (an area in which the surface of tomato was completely colored in red was 40 to 70%) | 0 (an area in which the surface of tomato was colored in pink was 10% or less) (2×) and 1 (an area in which the surface of tomato was completely colored in red was 10 to 40%) and 3 (an area in which the surface of tomato was completely colored in red was 70% or more and the bottom area remained green) | 1 (an area in which the surface of tomato was completely colored in red was 10 to 40%) (2×) and 2 (an area in which the surface of tomato was completely colored in red was 40 to 70%) and 4 | 0 (an area in which the surface of tomato was colored in pink was 10% or less) (2×) and 1 (an area in which the surface of tomato was completely colored in red was 10 to 40%) and 2 (an area in which the surface of tomato was completely colored in red was 40 to 70%) | 1 (an area in which the surface of tomato was completely colored in red was 10 to 40%) (3×) and 2 (an area in which the surface of tomato was completely colored in red was 40 to 70%) | 1 (an area in which the surface of tomato was completely colored in red was 10 to 40%) (2×) and 2 (an area in which the surface of tomato was completely colored in red was 40 to 70%) and 3 (an area in which the surface of tomato was completely colored in red was 70% or more and the bottom area remained green) | 2 (an area in which the surface of tomato was completely colored in red was 40 to 70%) (2×) and 3 (an area in which the surface of tomato was completely colored in red was 70% or more and the bottom area remained green) and 4 | 0 (an area in which the surface of tomato was colored in pink was 10% or less) (2×) and 1 (an area in which the surface of tomato was completely colored in red was 10 to 40%) and 2 (an area in which the surface of tomato was completely colored in red was 40 to 70%) | 0 (an area in which the surface of tomato was colored in pink was 10% or less) (2×) and 1 (an area in which the surface of tomato was completely colored in red was 10 to 40%) and 2 (an area in which the surface of tomato was completely colored in red was 40 to 70%) | 1 (an area in which the surface of tomato was completely colored in red was 10 to 40%) (2×) and 0 (an area in which the surface of tomato was colored in pink was 10% or less) and 3 (an area in which the surface of tomato was completely colored in red was 70% or more and the bottom area remained green) | 1 (an area in which the surface of tomato was completely colored in red was 10 to 40%) (2×) and 2 (an area in which the surface of tomato was completely colored in red was 40 to 70%) and 3 (an area in which the surface of tomato was completely colored in red was 70% or more and the bottom area remained green)
much more stable | >>10 | C1=C(CCCCCc2ccccc2)C1 [(5-Phenylpentyl), 1-(5-phenylpentyl)cyclopropene] | 0 (an area in which the surface of tomato was colored in pink was 10% or less) (2×) and 1 (an area in which the surface of tomato was completely colored in red was 10 to 40%) and 2 (an area in which the surface of tomato was completely colored in red was 40 to 70%) | 0 (an area in which the surface of tomato was colored in pink was 10% or less) (2×) and 1 (an area in which the surface of tomato was completely colored in red was 10 to 40%) and 2 (an area in which the surface of tomato was completely colored in red was 40 to 70%) | 0 (an area in which the surface of tomato was colored in pink was 10% or less) and 1 (an area in which the surface of tomato was completely colored in red was 10 to 40%) and 2 (an area in which the surface of tomato was completely colored in red was 40 to 70%) and 3 (an area in which the surface of tomato was completely colored in red was 70% or more and the bottom area remained green) | 1 (an area in which the surface of tomato was completely colored in red was 10 to 40%) (2×) and 3 (an area in which the surface of tomato was completely colored in red was 70% or more and the bottom area remained green) and 4 | 0 (an area in which the surface of tomato was colored in pink was 10% or less) (2×) and 1 (an area in which the surface of tomato was completely colored in red was 10 to 40%) and 2 (an area in which the surface of tomato was completely colored in red was 40 to 70%) | 0 (an area in which the surface of tomato was colored in pink was 10% or less) (2×) and 2 (an area in which the surface of tomato was completely colored in red was 40 to 70%) (2×) | 0 (an area in which the surface of tomato was colored in pink was 10% or less) and 1 (an area in which the surface of tomato was completely colored in red was 10 to 40%) and 3 (an area in which the surface of tomato was completely colored in red was 70% or more and the bottom area remained green) (2×) | 1 (an area in which the surface of tomato was completely colored in red was 10 to 40%) and 2 (an area in which the surface of tomato was completely colored in red was 40 to 70%) and 3 (an area in which the surface of tomato was completely colored in red was 70% or more and the bottom area remained green) and 4 | 0 (an area in which the surface of tomato was colored in pink was 10% or less) (2×) and 1 (an area in which the surface of tomato was completely colored in red was 10 to 40%) and 2 (an area in which the surface of tomato was completely colored in red was 40 to 70%) | 0 (an area in which the surface of tomato was colored in pink was 10% or less) (2×) and 1 (an area in which the surface of tomato was completely colored in red was 10 to 40%) and 2 (an area in which the surface of tomato was completely colored in red was 40 to 70%) | 0 (an area in which the surface of tomato was colored in pink was 10% or less) (2×) and 1 (an area in which the surface of tomato was completely colored in red was 10 to 40%) and 2 (an area in which the surface of tomato was completely colored in red was 40 to 70%) | 0 (an area in which the surface of tomato was colored in pink was 10% or less) and 1 (an area in which the surface of tomato was completely colored in red was 10 to 40%) and 2 (an area in which the surface of tomato was completely colored in red was 40 to 70%) and 3 (an area in which the surface of tomato was completely colored in red was 70% or more and the bottom area remained green)

From US9072293B2, “Cyclopropenes and method for applying cyclopropenes to agricultural products or crops” (Erum Biotechnologies Inc., priority 2010, dated 2015)
